Measured values: paper PMC8155056, “Cooperative inhibition of SNARE-mediated vesicle fusion by α-synuclein monomers and oligomers” (Scientific Reports, 2021)
“Also recorded” adds a separate entry of the source.

How the values were obtained:
[1] = system: α-Syn oligomers and monomers; experiment: Western blot of α-Syn monomer incubated with preformed oligomers; conditions: α-Syn monomer (500 nM) with preformed oligomers (10 nM), no dopamine, 37 °C, 12 h / up to 10 hours (Fig. S4)
Description: We first tested whether the incubation of the α-Syn monomer with oligomers increases the amount of α-Syn oligomers. […] This is consistent with previous work showing that dopamine-modified α-Syn oligomers are not seeding competent.
Purified proteins were subjected to 15% SDS/PAGE and then transferred to polyvinylidene fluoride membranes (Bio-Rad), which were then blocked with 5% (w/v) skim milk in Tris-buffered saline with 0.1% Tween 20 detergent (TBST) (500 mM Tris, pH 8.5; 150 mM NaCl; […]) for 1 h and incubated with α-Syn primary antibody [sc-52979 (Santa Cruz Biotechnology) at a 1:750 dilution factor] for 12 h at 4 °C. The membrane was rinsed with TBST, incubated with anti-mouse IgG peroxidase secondary antibody (Sigma; 1:2500 dilution factor), washed again with TBST, and reacted with chemiluminescent substrate solution (ThermoFisher Scientific, SuperSignal West Pico Chemiluminescent Substrate) for 1 min. Resulting bands were detected using an LAS-4000 instrument (Fujifilm Life Science).
Fig. S4. […] Vesicle compositions are 73% PC, 20% cholesterol, and 7% PS. α-Syn monomers (500 nM) were incubated with the purified dopamine-induced oligomers (10 nM) at 37 ℃ for up to 10 hours and then the mixtures were applied to the Western blot analysis and probed with anti–α-Syn antibody. […] The image was edited by Adobe Illustrator CS6 (Adobe).

Syb2-carrying v-vesicles = experiment: Cryo-EM of v-vesicle clustering
Description: Then, we tested the effect on vesicle clustering. We have proposed that α-Syn oligomers inhibit vesicle fusion by clustering synaptic vesicle mimics in vitro, thereby limiting the number of vesicles available for docking. A few micromolar α-Syn monomer is also known to induce vesicle clustering[27],[29],[30],[38]. Thus, it is possible that the α-Syn monomer by itself cannot induce vesicle clustering at the low concentration (less than 1 μM) that we applied in this work but assists α-Syn oligomers in clustering vesicles. We obtained images of v-vesicles treated with α-Syn oligomers in the presence and absence of monomers using cryo-electron microscopy (cryo-EM) (Fig. 2). The molar ratio of lipid: α-Syn oligomers: α-Syn monomers was 200:1:20. When more than ten vesicles were attached together, we assigned them as a vesicle clustering. In the absence of α-Syn, v-vesicles appeared without clustering (Fig. 2A). […] Cryo-EM could not resolve α-Syn oligomers because of its resolution limit. Since α-Syn oligomers are known to inhibit vesicle fusion through binding to the N-terminal domain of Syb2[15], we tested if their specific interactions with Syb2 are responsible for clustering the vesicles. We reconstituted v-vesicles with Syb2 lacking the N-terminal region (nt-Syb2, amino acids 29–116) and incubated them with α-Syn oligomers. […] While 22.7 ± 1.2 vesicles consisted of a cluster with α-Syn oligomers, 123.5 ± 11.5 vesicles clustered after the addition of α-Syn monomers together with oligomers. […] Although it is difficult to quantify the fraction of the flattened region, this structure was not observed in images of vesicles treated with α-Syn oligomers only (Fig. 2C, enlarged image). The addition of α-Syn monomer with α-Syn oligomers seemed to induce tighter adhesion between the vesicles.
v-Vesicles were incubated with α-Syn (molar ratio of lipid:α-Syn oligomer: monomer = 200:1:20). A 200-mesh carbon grid (Electron Microscopy Sciences) was glow-discharged using the PELCO easiGlow plasma cleaning system (Ted Pella, Inc.). […]

[2] = system: SNARE-mediated vesicle fusion (v-vesicles without PS); experiment: In vitro lipid-mixing (FRET) assay with v-vesicles prepared with 0% PS; assay type: biochemical; conditions: v-vesicles 0% PS
Description: Figure 3 α-Syn monomer interactions with the lipid membrane enable cooperative inhibition of vesicle fusion. (A) The effect of the lipid-binding-deficient mutant of the α-Syn monomer (T44P/A89P) on fusion inhibition. v-Vesicles (V) were incubated with the T44P/A89P monomer for 10 min, and then α-Syn oligomers and t-vesicles (T) were added to the premixture. T and V (20 μM lipid concentration) were mixed together at 37 °C without α-Syn (T-V, gray line). […] A control measurement using soluble Syb2 confirmed that lipid mixing was driven by SNARE complex formation (beige line). Bar graphs were obtained from the values at 2000s from the FRET measurements (± SEM, N = 3). *P < 0.05, **P < 0.01, ***P < 0.001 by Student’s t test. (B) The effect of the negatively charged lipid (PS) on fusion inhibition. v-Vesicles (V) prepared with 0% PS were used in the measurement. v-Vesicles without PS were incubated with wild-type α-Syn monomer, and then t-vesicles (T) and oligomers were added to the premixture. […]
(§1) t-Vesicles labeled with DiI and v-vesicles labeled with DiD were mixed together to reach a 20 μM lipid concentration. […] We used 532-nm light for excitation and detected the FRET signal (at 690 nm) every 10 s using a temperature-controlled fluorescence spectrophotometer (Cary Eclipse, Agilent) at 37 °C.

[3] = system: SNARE-mediated vesicle docking; conditions: nonaggregated α-Syn monomer, 10 μM; ref [42]; cited from earlier work
Excerpt: For the molecular mechanism of the inhibition, we proposed that α-Syn oligomers interfere with vesicle docking by clustering vesicles. […] Nonaggregated α-Syn or its monomer uses its interaction with Syb2 to help SNARE complex assembly[26] and induces the clustering of vesicles or Syb2, which promotes SNARE complex formation[25],[30]. […] All the functions of the α-Syn monomer are beneficial for neurotransmitter release.

[4] = system: neuronal SNARE-mediated vesicle fusion (t-SNAREs syntaxin HT/SNAP25 and v-SNARE Syb2); experiment: In vitro lipid-mixing (FRET) assay of SNARE-mediated vesicle fusion, v-vesicles with PS; assay type: biochemical
Excerpt: To address this question, we performed an in vitro lipid-mixing assay using fluorescently labeled proteoliposomes[31],[32]. In this assay, t-SNAREs [complexes of syntaxin Habc-trunctated (HT) (amino acids 168–288 of syntaxin 1A, lacking the Habc domain) and synaptosomal-associated protein-25 (SNAP25)] and v-SNARE Syb2 were incorporated into two different liposomes (t- and v-vesicles, respectively)[15],[31]. When t-vesicles doped with donor dyes (T) and v-vesicles doped with acceptor dyes (V) were fused together through SNARE complex formation[31],[33],[34], the lipids from the two types of vesicles mixed (Fig. 1B). This lipid mixing was monitored by the fluorescence resonance energy transfer (FRET) signal between 1,1′-dioctadecyl-3,3,3′,3′-tetramethylindocarbocyanine perchlorate (DiI) and 1,1′-dioctadecyl3,3,3′,3′-tetramethylindodicarbocyanine perchlorate (DiD) dyes (Supplementary Fig. S1B). α-Syn oligomers were prepared by incubating the α-Syn monomer (15 μM) with dopamine (100 μM) at 37 °C for 72 h (Supplementary Fig. S2A) and purified using size exclusion chromatography (Supplementary Fig. S2B and C)[15],[35]–[37]. We have estimated that the oligomers contain approximately 17 α-Syn monomeric subunits in our previous work[15]. Without the addition of α-Syn oligomers, the T-V mixture presented a significant mixing of lipids (Fig. 1C, the gray line).
We prepared three 30-residue peptides (CFα1, CFα2, and CFα3) that were mainly derived from the C-terminal domain of α-Syn (Anygen, South Korea) (Fig. 5A; Table 1) because the C-terminal domain of α-Syn (a.a. 96–140) is known to bind to the N-terminal domain of Syb2[26]. We confirmed the binding between the peptide and Syb2 using fluorescence anisotropy assay (Supplementary Fig. S8). […]
as §1

α-synuclein [α-Syn monomer]
change in amounts of oligomers and monomers [1]: No change in the intensities of the oligomers, multimers, and monomer was observed; also recorded: no change in the amounts of oligomers and monomers was observed
clustering of v-vesicles (Syb2-carrying v-vesicles; α-Syn monomer alone, lipid:monomer 10:1 (5 μM:0.5 μM)): no clustering of v-vesicles was observed
clustering of v-vesicles (Syb2-carrying v-vesicles; α-Syn monomer and oligomers, lipid:oligomers:monomers 200:1:20): they formed larger clusters; also recorded: The vesicle cluster was significantly larger than that observed in (C)
number of vesicles per cluster (Syb2-carrying v-vesicles; α-Syn monomers together with oligomers, lipid:oligomers:monomers 200:1:20): 123.5 ± 11.5 vesicles
recovery of SNARE-mediated lipid mixing ([2]; 2 μM wild-type α-Syn monomer with α-Syn oligomers, 37 °C, at 2000 s, N = 3): ~100%
effect on fusion inhibition by oligomers ([2]; wild-type α-Syn monomer (200 nM to 2 μM) with α-Syn oligomers): the FRET signal increased; also recorded: attenuated
effect on SNARE-dependent vesicle docking [3]: beneficial for SNARE-dependent vesicle docking
fusion efficiency (relative lipid mixing) ([4]; 10 nM α-Syn oligomers + 850 nM α-Syn monomer, monomer pre-incubated with V 10 min, 37 °C, at 1800 s, N = 3): 25%
effect on fusion inhibition by oligomers ([4]; wild-type α-Syn monomer together with 10 nM α-Syn oligomers, 37 °C): more severe inhibition of vesicle fusion between T and V was observed as the concentration of α-Syn monomer increased; also recorded: the FRET signal was lower than that of the α-Syn oligomer-treated vesicle fusion
effect on lipid mixing ([4]; α-Syn monomer alone, 200–850 nM, 10 min incubation with v-vesicles, N = 3): negligible effect on lipid mixing; also recorded: no effect on SNARE-mediated lipid mixing; also recorded: negligible effect on SNARE-mediated vesicle fusion
